For assay [1], the system named is spontaneously hypertensive rats. The assay is described as follows: Hypotensive Activity in Spontaneously Hypertensive Rats. It is filed as in vivo. The conditions noted are these: gavage, 100 mg./kg. or less, two doses 24 hours apart; measured 28 hours after initial dose; initial average 170±1.5 mm. On the procedure: The novel compounds of the present invention are active hypotensive agents and were tested for hypotensive activity by the method of P. S. Chan and D. Poorvin, Clinical and Experimental Hypertension, 1 (6), 817-830 (1979). Male, 16 week old, spontaneously hypertensive rats of the Okamoto strain, from Taconic Farms, Germantown, N.Y., having an average mean arterial blood pressure of 170±1.5 mm of mercury are used in the test. One to 3 rats are used per test compound. A rat is dosed by gavage with a test compound, suspended in 2% pre-boiled starch at a concentration of 50 mg./ml., at a dose of 100 mg./kg. of body weight or less, with 0.9% sodium chloride loading at a dose of 25 ml./kg. of body weight. A second identical dose of the test compound, without sodium chloride loading is given 24 hours later. At 28 hours after the initial dose the mean arterial blood pressure is measured by the method of Chan and Poorvin vide supra. The procedure is repeated in a second and third rat when necessary.

Assay [2] addresses T1, thromboxane synthetase enzyme (Rattus norvegicus, UniProt P49430).
T1 construct: The platelets were isolated by centrifuging the PRP for 10 minutes at 1060xg; endogenous in cells; host or cells: washed platelets from arterial blood of Okamoto-Aoki spontaneously hypertensive rats (Taconic Farms, Germantown, NY)
T1 sequence (P49430 1-533): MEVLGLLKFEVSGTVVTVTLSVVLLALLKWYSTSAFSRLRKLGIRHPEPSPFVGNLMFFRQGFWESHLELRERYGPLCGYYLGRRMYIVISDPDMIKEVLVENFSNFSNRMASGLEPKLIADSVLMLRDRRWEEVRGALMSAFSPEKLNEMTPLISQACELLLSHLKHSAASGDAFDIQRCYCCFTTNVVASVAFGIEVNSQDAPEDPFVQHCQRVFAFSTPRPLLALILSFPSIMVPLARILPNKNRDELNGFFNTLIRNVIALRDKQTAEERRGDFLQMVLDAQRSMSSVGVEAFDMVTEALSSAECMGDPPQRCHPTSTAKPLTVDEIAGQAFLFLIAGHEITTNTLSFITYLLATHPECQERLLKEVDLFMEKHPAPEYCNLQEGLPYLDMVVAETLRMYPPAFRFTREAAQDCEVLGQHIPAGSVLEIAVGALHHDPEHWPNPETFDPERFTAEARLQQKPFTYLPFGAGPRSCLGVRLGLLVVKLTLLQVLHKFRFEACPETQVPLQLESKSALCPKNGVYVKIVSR
The assay is described as follows: Thromboxane Synthetase Enzyme Inhibition (TXB2 formation by washed SHR platelets, RIA). In kind it is cell-based, Okamoto-Aoki spontaneously hypertensive rats (SHR). The conditions noted are these: 10 min; Dose 10^-4 (unit inferred); SHR platelet suspension, 10 minutes at 37° C. On the procedure: Under urethan anesthesia, […] of arterial blood was collected in one ml. of 3.2% sodium citrate in a polystyrene tube from Okamoto-Aoki spontaneously hypertensive rats (SHR) (Taconic Farms, Germantown, NY) between 19 and 24 weeks in age. The blood was diluted with 3 ml. cold saline and centrifuged at room temperature for 15 minutes at 460xg. The platelet rich plasma (PRP) was separated. The platelets were isolated by centrifuging the PRP for 10 minutes at 1060xg and were washed in 4 ml. of cold oxygenated Krebs phosphate buffer, pH 7.4. The chilled platelets recovered from centrifuging at 800xg for 10 minutes were resuspended in oxygenated Krebs phosphate buffer and diluted to contain 4.5-6.0×10^4 platelets/μl.
The inhibition of thromboxane (TX) formation was studied by determining the concentration of thromboxane B2 (TXB2), the stable hydrolysis product of TXA2. Assay samples, prepared on ice, contained 200 μl platelet suspension, 50 μl saline and 50 μl saline and 50 μl vehicle or drug under study. The samples were incubated for 10 minutes at 37° C. in a metabolic shaker. The reaction was terminated by immersing the tubes in an ice bath and adding 50 μl of 0.5M citric acid. The samples were centrifuged for 10 minutes in a refrigerated centrifuge and the supernatants thus obtained were decanted and stored at -20° C. The TXB2 content for each sample was determined by a direct radioimmunoassay (RIA) utilizing a TXB2 specific RIA kit purchased from New England Nuclear, Boston, MA and expressed as pg TXB2 formed minute^-1 sample^-1, from which the percent inhibition of TXB2 formation was calculated.

Assay [3] relates to ischemic myocardium in canines. The conditions noted are these: cited from earlier work.
Assay [4] concerns coronary arteries of guinea pigs. The conditions noted are these: cited from earlier work.
Assay [5] deals with coronary arteries of rabbits. The conditions noted are these: cited from earlier work.

These results are taken from US4576957A, “N-(Substituted phenyl)-N'-[(1H-imidazol-1-yl) and (1H-1,2,4-triazol-1-yl)alkyl]ureas” (American Cyanamid Company, priority 1984, dated 1986).

A word on the inhibition: it is the share of the control response that was lost under treatment. Higher therefore signals a response far below the control. On to `O=C(NCCCCCn1ccnc1)Nc1ccc(Cl)cc1`, for which the “Average MABP” value in assay [1] is 153 mm Hg. This compound also returned an inhibition at 100 µM in assay [2] of 92%.

On to `O=C(NCCCCn1ccnc1)Nc1ccccc1Cl` [N-(2-Chlorophenyl)-N'-[4-(-1H-imidazol-1-yl)butyl]urea], for which, in assay [1], the “Average MABP” value came out at 97 mm Hg.

Regarding `O=C(NCCCn1cncn1)Nc1ccc(Cl)cc1` [N-(4-Chlorophenyl)-N'-[3-(1H-1,2,4 triazol-1-yl)propyl]urea], the “Average MABP” value in assay [1] stood at 145 mm Hg. This compound also registered an inhibition at 100 µM in assay [2] of 93%.

As to `O=C(NCCCn1ccnc1)Nc1ccc(Cl)cc1` [N-(4-Chlorophenyl)-N'-[3-(1H-imidazol-1-yl)propyl]urea], the “Average MABP” value in assay [1] is given as 122 mm Hg. For the same compound, the inhibition at 100 µM in assay [2] amounted to 92%.

`O=C(NCCCn1cncn1)Nc1ccccc1Br` [N--(2-bromophenyl)-N'--[3-(1H--1,2,4-triazol-1-yl)propyl]-urea]: in assay [1], the “Average MABP” value is 130 mm Hg. In addition, in assay [2], the inhibition at 100 µM is 85%.

With `O=C(NCCCn1ccnc1)Nc1ccccc1Br` [N--(2-bromophenyl)-N'--[3-(1H--imidazole-1-yl)propyl]-urea], the “Average MABP” value in assay [1] is given as 113 mm Hg. The same compound showed an inhibition at 100 µM in assay [2] of 95%.

Turning to `O=C(NCCCCn1ccnc1)Nc1ccccc1Br` [N--(2-bromophenyl)-N'--[4-(1H--imidazol-1-yl)-butyl]-urea], the “Average MABP” value in assay [1] was 98 mm Hg.

Regarding `O=C(NCCCn1cncn1)Nc1ccccc1Cl` [N--(2-chlorophenyl)-N'--[3-(1H--1,2,4-triazol-1-yl)propyl]-urea], the “Average MABP” value in assay [1] was determined as 142 mm Hg. Further, the inhibition at 100 µM in assay [2] is 86%.

Turning to `O=C(NCCCn1ccnc1)Nc1ccccc1Cl` [N--(2-chlorophenyl)-N'--[3-(1H--imidazole-1-yl)propyl]-urea], the “Average MABP” value in assay [1] came to 123 mm Hg. This compound had an inhibition at 100 µM in assay [2] of 94%.

Regarding `O=C(NCCCn1cncn1)Nc1ccccc1F` [N--(2-fluorophenyl)-N'--[3-(1H--1,2,4-triazol-1-yl)propyl]-urea], the “Average MABP” value in assay [1] was found to be 149 mm Hg. This compound also registered an inhibition at 100 µM in assay [2] of 70%.

`O=C(NCCCn1ccnc1)Nc1ccccc1F` [N--(2-fluorophenyl)-N'--[3-(1H--imidazole-1-yl)propyl]-urea]: the “Average MABP” value in assay [1] is 135 mm Hg. In addition, the inhibition at 100 µM in assay [2] came to 99%.

With `O=C(NCCCn1cncn1)Nc1ccc(Cl)c(Cl)c1` [N--(3,4-dichlorophenyl)-N'--[3-(1H--1,2,4-triazol-1-yl)-propyl]urea], in assay [1], the “Average MABP” value was 155 mm Hg.

As for `O=C(NCCCn1ccnc1)Nc1ccc(Cl)c(Cl)c1` [N--(3,4-dichlorophenyl)-N'--[3-(1H--imidazole-1-yl)propyl]-urea], the “Average MABP” value in assay [1] is on record as 146 mm Hg. The same compound had an inhibition at 100 µM in assay [2] of 95%.

`O=C(NCCCn1ccnc1)Nc1cccc(Cl)c1` [N--(3-chlorophenyl)-N'--[3-(1H--imidazole-1-yl)propyl]-urea]: in assay [1], the “Average MABP” value was 124 mm Hg. In assay [2], this compound gave an inhibition at 100 µM of 100%.

`O=C(NCCCn1cncn1)Nc1cccc(Cl)c1` [N--(3-chlorophenyl)-N--[3-(1H--1,2,4-triazol-1-yl)propy]-urea]: the “Average MABP” value in assay [1] turned out to be 149 mm Hg. The same compound displayed an inhibition at 100 µM in assay [2] of 99%.

As for `O=C(NCCCn1cncn1)Nc1ccc(Br)cc1` [N--(4-bromophenyl)-N'--[3-(1H--1,2,4-triazol-1-yl)propyl]urea], the inhibition at 100 µM in assay [2] is 86%.

Turning to `O=C(NCCCn1ccnc1)Nc1ccc(Br)cc1` [N--(4-bromophenyl)-N'--[3-(1H--imidazole-1-yl)propyl]-urea], in assay [1], the “Average MABP” value came to 145 mm Hg. The same compound showed an inhibition at 100 µM in assay [2] of 95%.

Consider `O=C(NCCCn1ccnc1-c1ccccc1)Nc1ccc(Cl)cc1` [N--(4-chlorophenyl)-N'--[3-(2-phenyl-1H--imidazol-1-yl)-propyl]urea], for which testing at 100 µM in assay [2] gave an inhibition of 86%.

Consider `Cc1cn(CCCNC(=O)Nc2ccc(Cl)cc2)cn1` [N--(4-chlorophenyl)-N'--[3-(4-methyl-1H--imidazol-1-yl)-propyl]urea], for which, in assay [1], the “Average MABP” value is given as 138 mm Hg. The compound also came in with an inhibition at 100 µM in assay [2] of 92%.

For `O=C(NCCCCn1ccnc1)Nc1ccc(Cl)cc1` [N--(4-chlorophenyl)-N'--[4-(1H--imidazol-1-yl)butyl]urea], in assay [1], the “Average MABP” value came out at 131 mm Hg. This compound also had an inhibition at 100 µM in assay [2] of 95%.

With `Cc1cn(CCCCNC(=O)Nc2ccc(Cl)cc2)cn1` [N--(4-chlorophenyl)-N'--[4-(4-methyl-1H--imidazol-1-yl)-butyl]urea], in assay [2], the inhibition at 100 µM came to 100%.

Take `O=C(NCCCn1cncn1)Nc1ccc(F)cc1` [N--(4-fluorophenyl)-N'--[3-(1H--1,2,4-triazol-1-yl)propyl]urea]: the inhibition at 100 µM in assay [2] worked out at 97%.

For `O=C(NCCCn1ccnc1)Nc1ccc(F)cc1` [N--(4-fluorophenyl)-N'--[3-(1H--imidazol-l-yl)propyl]-urea], the “Average MABP” value in assay [1] turned out to be 134 mm Hg. The same compound yielded an inhibition at 100 µM in assay [2] of 100%.

On to `COc1ccc(NC(=O)NCCCn2cncn2)cc1` [N--(4-methoxyphenyl)-N'--[3-(1H--1,2,4-triazol-1-yl)-propyl]urea], for which the inhibition at 100 µM in assay [2] is 71%.

On to `COc1ccc(NC(=O)NCCCn2ccnc2)cc1` [N--[3-(1H--imidazol-1-yl)propyl]-N'--(4-methoxyphenyl)urea], for which, in assay [2], at 100 µM the inhibition was 94%.

Turning to `O=C(NCCCn1ccnc1)Nc1ccccc1` [N--[3-(1H--imidazol-1-yl)propyl]-N'--phenylurea], the “Average MABP” value in assay [1] came out at 141 mm Hg. Also, at 100 µM the inhibition in assay [2] was 97%.

The compound `Cc1ccc(NC(=O)NCCCn2ccnc2)cc1` [N--[3-(1H--imidazole-1-yl)-propyl]-N'--(4-methylphenyl)-urea] displayed an inhibition at 100 µM in assay [2] of 98%.

Turning to `O=C(NCCCn1cncn1)Nc1ccccc1` [N--phenyl-N'--[3-(1H--1,2,4-triazol-1-yl)propyl]urea], the “Average MABP” value in assay [1] amounted to 151 mm Hg.

Take `O=C(NCCCn1cncn1)Nc1cccc(C(F)(F)F)c1` [N-[3-(1H-1,2,4-triazol-1-yl)propyl]-N'-[3-(trifluoromethyl)phenyl]urea]: the “Average MABP” value in assay [1] amounted to 143 mm Hg. This compound also yielded an inhibition at 100 µM in assay [2] of 99%.

`O=C(NCCCn1ccnc1)Nc1cccc(C(F)(F)F)c1` [N-[3-(1H-Imidazol-1-yl)propyl]-N'-[3-(trifluoromethyl)phenyl]urea] registered an inhibition at 100 µM in assay [2] of 100%.

On to `CCCCC[C@H](O)/C=C/[C@@H]1[C@H]2C/C(=C/CCCC(=O)O)O[C@H]2C[C@H]1O` [PGI2, Prostacyclin], for which the “effect on ischemic myocardium” value in assay [3] is “beneficial effects”.

Turning to `CCCCC[C@H](O)/C=C/[C@H]1O[C@H]2C[C@H](O2)[C@@H]1C/C=C\CCCC(=O)O` [TXA2, thromboxane A2], the “effect of injection into coronary arteries” value is “causes myocardial ischemia and subendocardial necrosis” in assay [4]; “causes myocardial ischemia and subendocardial necrosis” in assay [5].
